Measured values: US10745416B2, “Macrocyclic compounds for treating disease” (Turning Point Therapeutics, Inc., priority 2017, dated 2020)

What was measured:
Assay in all cases: Cell proliferation assay (CellTiter-Glo, 72 hours)
BaF3 EML4-ALK = target: T1, BaF3 EML4-ALK (Homo sapiens, UniProt Q9UM73); type: cell-based; conditions: anti-cell proliferation
T1 construct: The EML4-ALK gene (variant 1) was synthesized at GenScript and cloned into pCDH-CMV-MCS-EF1-Puro plasmid (System Biosciences, Inc); fused on or other part: Q9HC35 (Echinoderm microtubule-associated protein-like 4)
Method: The EML4-ALK gene (variant 1) was synthesized at GenScript and cloned into pCDH-CMV-MCS-EF1-Puro plasmid (System Biosciences, Inc). Ba/F3-EML4-ALK wild type were generated by transducing Ba/F3 cells with lentivirus containing EML4-ALK wide type. Stable cell lines were selected by puromycin treatment, followed by IL-3 withdrawal. Briefly, 5×10^6 Ba/F3 cells were transduced with lentivirus supernatant in the presence of 8 μg/mL protamine sulfate. The transduced cells were subsequently selected with 1 μg/mL puromycin in the presence of IL3-containing medium RPMI1640, plus 10% FBS. After 10-12 days of selection, the surviving cells were further selected for IL3 independent growth.
(§1) Two thousand cells per well were seeded in 384 well white plate for 24 hrs, and then treated with compounds for 72 hours (37° C., 5% CO2). Cell proliferation was measured using CellTiter-Glo luciferase-based ATP detection assay (Promega) following the manufactures's protocol. IC50 determinations were performed using GraphPad Prism software (GraphPad, Inc., San Diego, Calif.).

BaF3 KIF5B-RET_V804M = target: T2, BaF3 KIF5B-RET_V804M (Homo sapiens, UniProt P07949, V804M, cells depend on it); type: cell-based; conditions: anti-cell proliferation, read-out: BaF3 KIF5B-RET_V804M IC50
T2 construct: fused on or other part: P33176 (Kinesin-1 heavy chain)
From the text: (§2) The KIF5B-RET gene was synthesized at GenScript and cloned into pCDH-CMV-MCS-EF1-Puro plasmid (System Biosciences, Inc). KIF5B-RET point mutation V804M was generated at GenScript by PCR and confirmed by sequencing. Ba/F3-KIF5B-RET wild type and mutant were generated by transducing Ba/F3 cells with lentivirus containing KIF5B-RET wide type or mutant. Stable cell lines were selected by puromycin treatment, followed by IL-3 withdrawal. Briefly, 5×10^6 Ba/F3 cells were transduced with lentivirus supernatant in the presence of 8 μg/mL protamine sulfate. The transduced cells were subsequently selected with 1 µg/mL puromycin in the presence of IL3-containing medium RPMI1640, plus 10% FBS. After 10-12 days of selection, the surviving cells were further selected for IL3 independent growth.
as §1

BaF3 KIF5B-RET_G810R = target: T3, BaF3 KIF5B-RET_G810R (Homo sapiens, UniProt P07949, G810R, cells depend on it); type: cell-based; conditions: anti-cell proliferation, read-out: BaF3 KIF5B-RET_G810R IC50
T3 construct: fused on or other part: P33176 (Kinesin-1 heavy chain)
From the text: [The source words this procedure for another variant and reports this variant under the same test.] as §2, §1

BaF3 KIF5B-RET = target: T4, BaF3 KIF5B-RET (Homo sapiens, UniProt P07949); type: cell-based; conditions: anti-cell proliferation, read-out: BaF3 KIF5B-RET IC50
T4 construct: fused on or other part: P33176 (Kinesin-1 heavy chain)
From the text: as §2, §1

KG-1 = type: cell-based, human; conditions: Homo sapiens, KG-1, anti-cell proliferation
Method: (§3) Human medulla thyroid carcinoma cell line TT (containing RET […] mutation) and acute myelogenous cell line KG-1 were purchased from ATCC. Human colon cancer cell line KMI2 (containing TPM3-TRKA) was obtained from NCI.
as §1

KM12 cell (TPM3-TRKA) = type: cell-based, human; conditions: Homo sapiens, KM12, anti-cell proliferation
Method: as §3, §1

T1 sequence (Q9UM73 whole entry, change not shown, the tested form may be a part): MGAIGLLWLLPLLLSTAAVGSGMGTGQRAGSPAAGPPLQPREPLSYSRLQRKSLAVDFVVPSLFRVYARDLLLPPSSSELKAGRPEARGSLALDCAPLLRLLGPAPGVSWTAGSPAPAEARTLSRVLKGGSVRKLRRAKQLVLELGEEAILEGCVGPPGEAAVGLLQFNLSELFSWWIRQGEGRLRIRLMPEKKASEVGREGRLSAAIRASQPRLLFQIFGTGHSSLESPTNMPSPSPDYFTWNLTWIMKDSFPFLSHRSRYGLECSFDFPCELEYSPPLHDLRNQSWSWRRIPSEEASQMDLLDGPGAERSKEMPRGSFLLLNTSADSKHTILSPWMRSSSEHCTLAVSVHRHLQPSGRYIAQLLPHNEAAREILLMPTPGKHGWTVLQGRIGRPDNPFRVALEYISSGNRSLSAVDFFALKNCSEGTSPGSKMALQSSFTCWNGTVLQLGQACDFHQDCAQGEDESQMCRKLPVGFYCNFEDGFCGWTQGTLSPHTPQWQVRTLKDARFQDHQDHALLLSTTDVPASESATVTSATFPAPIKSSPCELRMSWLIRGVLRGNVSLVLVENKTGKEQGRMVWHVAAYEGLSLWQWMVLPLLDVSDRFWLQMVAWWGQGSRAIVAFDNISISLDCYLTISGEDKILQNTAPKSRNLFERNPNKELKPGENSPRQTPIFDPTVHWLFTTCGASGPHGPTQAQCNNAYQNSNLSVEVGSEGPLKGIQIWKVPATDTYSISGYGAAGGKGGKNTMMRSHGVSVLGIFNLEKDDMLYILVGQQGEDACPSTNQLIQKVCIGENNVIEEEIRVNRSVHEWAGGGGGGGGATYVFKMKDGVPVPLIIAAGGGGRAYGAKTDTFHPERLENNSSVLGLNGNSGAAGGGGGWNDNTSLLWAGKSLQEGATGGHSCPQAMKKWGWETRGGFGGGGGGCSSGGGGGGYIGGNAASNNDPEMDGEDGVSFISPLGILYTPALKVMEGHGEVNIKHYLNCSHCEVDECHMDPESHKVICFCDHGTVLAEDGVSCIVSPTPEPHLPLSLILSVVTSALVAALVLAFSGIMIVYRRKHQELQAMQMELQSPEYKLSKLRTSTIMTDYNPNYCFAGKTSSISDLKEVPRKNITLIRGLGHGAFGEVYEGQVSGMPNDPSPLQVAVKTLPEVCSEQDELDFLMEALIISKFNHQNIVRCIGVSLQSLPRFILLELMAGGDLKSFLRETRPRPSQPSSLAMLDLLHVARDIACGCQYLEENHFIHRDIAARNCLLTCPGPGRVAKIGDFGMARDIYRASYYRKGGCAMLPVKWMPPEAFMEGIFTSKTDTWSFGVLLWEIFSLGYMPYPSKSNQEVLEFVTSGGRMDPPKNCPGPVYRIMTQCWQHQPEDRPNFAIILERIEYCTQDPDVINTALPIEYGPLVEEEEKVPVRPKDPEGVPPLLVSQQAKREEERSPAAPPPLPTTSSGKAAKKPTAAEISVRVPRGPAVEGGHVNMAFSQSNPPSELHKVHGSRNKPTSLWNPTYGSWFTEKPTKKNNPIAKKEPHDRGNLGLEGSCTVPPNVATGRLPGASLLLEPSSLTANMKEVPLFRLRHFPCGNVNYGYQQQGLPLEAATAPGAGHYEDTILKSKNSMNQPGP
T4 sequence (P07949 whole entry, change not shown, the tested form may be a part): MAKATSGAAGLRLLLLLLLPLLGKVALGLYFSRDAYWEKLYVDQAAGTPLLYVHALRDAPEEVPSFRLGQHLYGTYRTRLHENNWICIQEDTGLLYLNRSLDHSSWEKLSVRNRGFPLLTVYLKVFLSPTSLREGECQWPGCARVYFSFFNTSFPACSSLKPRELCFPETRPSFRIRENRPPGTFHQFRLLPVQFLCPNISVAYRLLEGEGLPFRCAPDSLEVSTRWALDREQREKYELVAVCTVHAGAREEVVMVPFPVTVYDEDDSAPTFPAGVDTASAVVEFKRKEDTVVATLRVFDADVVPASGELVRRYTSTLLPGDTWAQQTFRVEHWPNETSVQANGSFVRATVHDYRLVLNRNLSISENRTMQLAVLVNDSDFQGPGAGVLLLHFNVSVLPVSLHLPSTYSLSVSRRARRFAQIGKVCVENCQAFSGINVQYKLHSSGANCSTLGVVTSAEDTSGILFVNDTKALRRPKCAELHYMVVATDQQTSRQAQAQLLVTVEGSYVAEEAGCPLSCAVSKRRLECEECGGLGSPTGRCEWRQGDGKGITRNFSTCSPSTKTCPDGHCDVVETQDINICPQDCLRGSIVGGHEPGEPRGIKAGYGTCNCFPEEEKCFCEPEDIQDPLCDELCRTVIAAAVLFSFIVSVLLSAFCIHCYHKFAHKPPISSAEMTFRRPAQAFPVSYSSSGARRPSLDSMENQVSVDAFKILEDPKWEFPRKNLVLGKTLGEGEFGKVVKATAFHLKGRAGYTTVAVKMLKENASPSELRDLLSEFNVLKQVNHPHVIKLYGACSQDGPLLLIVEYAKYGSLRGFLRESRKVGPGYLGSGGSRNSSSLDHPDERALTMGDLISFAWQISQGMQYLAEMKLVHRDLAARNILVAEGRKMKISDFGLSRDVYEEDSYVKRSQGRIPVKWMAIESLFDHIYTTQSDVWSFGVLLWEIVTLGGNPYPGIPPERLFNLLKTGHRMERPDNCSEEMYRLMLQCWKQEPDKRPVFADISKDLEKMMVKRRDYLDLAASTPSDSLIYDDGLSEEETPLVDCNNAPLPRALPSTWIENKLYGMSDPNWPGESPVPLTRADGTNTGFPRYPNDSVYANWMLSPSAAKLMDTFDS
T2 sequence (P07949 whole entry V804M, the tested form may be a part): as the sequence (P07949 whole entry, change not shown, the tested form may be a part) above, with V804M counted along it
T3 sequence (P07949 whole entry G810R, the tested form may be a part): as the sequence (P07949 whole entry, change not shown, the tested form may be a part) above, with G810R counted along it

Row | GI50 (BaF3 EML4-ALK) [nM] | GI50 (BaF3 KIF5B-RET_V804M) [nM] | GI50 (BaF3 KIF5B-RET_G810R) [nM] | GI50 (BaF3 KIF5B-RET) [nM] | Compound | IC50 (KG-1) [nM] | IC50 (KM12 cell (TPM3-TRKA)) [nM]
1 | 1060 | 5720 | 501 | 89 | O=C1NC[C@H](O)COc2ncc(F)cc2CN2c3nc4c1cnn4cc3O[C@H]1CCC[C@H]12 [Compound 32, (3aR,12S,21aS)-7-fluoro-12-hydroxy-2,3,3a,11,12,13,14,21a-octahydro-1H,5H,15H-18,20-(metheno)cyclopenta[5,6][1,4]oxazino[4,3-e]pyrazolo[3,4-h]pyrido[2,3-b][1,5,7,11]oxatriazacyclotetradecin-15-one] | 223 | 20.2
2 | 4000 | 1210 | – | 274 | C[C@@H]1COc2ncc(F)cc2CN2c3nc4c(cnn4cc3O[C@H]3CC[C@H]32)C(=O)N1 [Compound 10, (2aR,11R,19aS)-6-fluoro-11-methyl-1,2,2a,11,12,19a-hexahydro-4H-16,18-(metheno)cyclobuta[5,6][1,4] oxazino[3,4-i]pyrazolo[4,3-f]pyrido[3,2-l][1,4,8,10]oxatriazacyclotridecin-13(10H)-one] | 78.3 | 0.2
3 | 4000 | 1930 | – | 342 | C[C@H]1CNC(=O)c2cnn3cc4c(nc23)N(Cc2cc(F)cnc2O1)[C@@H]1CC[C@@H]1O4 [Compound 8, (2aR,10S,19aS)-6-fluoro-10-methyl-1,2,2a,11,12,19a-hexahydro-4H-16,18-(metheno)cyclobuta[5,6][1,4] oxazino[3,4-i]pyrazolo[4,3-f]pyrido[3,2-l][1,4,8,10]oxatriazacyclotridecin-13(10H)-one] | 189 | 0.3
4 | > 10000 | – | – | 8000 | CC(=O)N1C[C@H]2Oc3cn4ncc5c4nc3N(Cc3cc(F)cnc3O[C@@H](C)CNC5=O)[C@H]2C1 [Compound 37, (3aS,11S,20aR)-2-acetyl-7-fluoro-11-methyl-2,3,3a,12,13,20a-hexahydro-1H, 5H-17,19-(metheno)pyrazolo[4,3-f]pyrido [3,2-l]pyrrolo[3′,4′:5,6][1,4]oxazino[3,4-i][1,4,8,10]oxatriazacyclotridecin-14(11H)-one] | 3000 | 1200
5 | 2990 | – | 396 | 68.9 | O=C1NC[C@@H](O)COc2ncc(F)cc2CN2c3nc4c1cnn4cc3O[C@H]1CCC[C@H]12 [Compound 43, (3aR,12R,21aS)-7-fluoro-12-hydroxy-2,3,3a,11,12,13,14,21a-octahydro-1H, 5H,15H-18,20-(metheno)cyclopenta[5,6][1,4] oxazino[4,3-e]pyrazolo[3,4-h]pyrido[2,3-b][1,5,7,11]oxatriazacyclotetradecin-15-one] | 359 | 109
6 | > 10000 | – | – | 8000 | CC(=O)N1C[C@@H]2Oc3cn4ncc5c4nc3N(Cc3cc(F)cnc3O[C@@H](C)CNC5=O)[C@@H]2C1 [Compound 36, (3aR,11S,20aS)-2-acetyl-7-fluoro-11-methyl-2,3,3a,12,13,20a-hexahydro-1H, 5H-17,19-(metheno)pyrazolo[4,3-f]pyrido [3,2-l]pyrrolo[3′,4′:5,6][1,4]oxazino[3,4-i][1,4,8,10]oxatriazacyclotridecin-14(11H)-one] | 10000 | 1000
7 | 908 | – | 530 | 120 | O=C1N[C@H](C2CC2)COc2ncc(F)cc2CN2c3nc4c1cnn4cc3O[C@H]1CCC[C@H]12 [Compound 14, (3aR,12R,20aS)-12-cyclopropyl-7-fluoro-2,3,3a,12,13,20a-hexahydro-1H,5H-17-19-(metheno)cyclopenta[5,6][1,4] oxazino[4,3-i]pyrazolo[4,3-f]pyrido[3,2-l][1,4,8,10]oxatriazacyclotridecin-14(11H)-one] | 273 | 26.6
8 | – | > 10000 | > 10000 | 4000 | C[C@H]1CNC(=O)c2cnn3cc4c(nc23)N(Cc2cc(F)cnc2O1)[C@H]1COC[C@H]1O4 [Compound 31, (3aS,11S,20aS)-7-fluoro-11-methyl-1,3,3a,12,13,20a-hexahydro-5H-17,19-(metheno)furo[3′,4′:5,6][1,4]oxazino[3,4-i]pyrazolo[4,3-f]pyrido[3,2-l][1,4,8,10]oxatriazacyclotridecin-14(11H)-one] | 10000 | 365
9 | – | 3000 | – | 839 | C[C@@H]1COc2ncc(F)cc2CN2c3nc4c(cnn4cc3O[C@@H]3CC[C@@H]32)C(=O)N1 [Compound 11, (2aS,11R,19aR)-6-fluoro-11-methyl-1,2,2a,11,12,19a-hexahydro-4H-16,18-(metheno)cyclobuta[5,6][1,4] oxazino[3,4-i]pyrazolo[4,3-f]pyrido[3,2-l][1,4,8,10]oxatriazacyclotridecin-13(10H)-one] | 307 | 0.4
10 | 1450 | – | 156 | 5.1 | O=C1N[C@H]2CC[C@H](C2)Oc2ncc(F)cc2CN2c3nc4c1cnn4cc3O[C@H]1CCC[C@H]12 [Compound 41, (3aR,11R,14S,22aS)-7-fluoro-2,3,3a,12,13,14,15,22a-octahydro-1H, 5H-11,14-metheno-19,21-(metheno)cyclopenta[5,6][1,4] oxazino[4,3-e]pyrazolo[3,4-h]pyrido[2,3-b][1,5,7,11]oxatriazacyclopentadecin-16(11H)-one] | 389 | 431
11 | 8000 | > 10000 | – | 2360 | C[C@H]1CNC(=O)c2cnn3cc4c(nc23)N(Cc2cc(F)cnc2O1)[C@H]1CC[C@H]1O4 [Compound 9, (2aS,10S,19aR)-6-fluoro-10-methyl-1,2,2a,11,12,19a-hexahydro-4H-16,18-(metheno)cyclobuta[5,6][1,4] oxazino[3,4-i]pyrazolo[4,3-f]pyrido[3,2-l][1,4,8,10]oxatriazacyclotridecin-13(10H)-one] | 1000 | 3.3
12 | 1000 | – | 651 | 62.2 | CC1(C)CCOc2ncc(F)cc2CN2c3nc4c(cnn4cc3O[C@H]3CCC[C@H]32)C(=O)N1 [Compound 34, (3aR,21aS)-7-fluoro-13,13-dimethyl-2,3,3a,11,12,13,14,21a-octahydro-1H,5H,15H-18,20-(metheno)cyclopenta[5,6][1,4]oxazino[4,3-e]pyrazolo[3,4-h]pyrido[2,3-b][1,5,7,11]oxatriazacyclotetradecin-15-one] | 408 | 50
13 | 338 | – | 17.4 | 0.5 | O=C1N[C@@H]2CC[C@@H](C2)Oc2ncc(F)cc2CN2c3nc4c1cnn4cc3O[C@H]1CCC[C@H]12 [Compound 42, (3aR,11S,14R,22aS)-7-fluoro-2,3,3a,12,13,14,15,22a-octahydro-1H, 5H-11,14-metheno-19,21-(metheno)cyclopenta[5,6][1,4] oxazino[4,3-e]pyrazolo[3,4-h]pyrido[2,3-b][1,5,7,11]oxatriazacyclopentadecin-16(11H)-one] | 41 | 9.8
14 | 1100 | – | – | 8.8 | C[C@@H]1CCNC(=O)c2cnn3cc4c(nc23)N(Cc2cc(F)cnc2O1)[C@@H]1CCC[C@@H]1O4 [Compound 35, (3aR,11R,21aS)-7-fluoro-11-methyl-2,3,3a,11,12,13,14,21a-octahydro-1H,5H,15H-18,20-(metheno)cyclopenta[5,6][1,4]oxazino[4,3-e]pyrazolo[3,4-h]pyrido[2,3-b][1,5,7,11]oxatriazacyclotetradecin-15-one] | 55.7 | < 0.2
